How the values were obtained:
[1] = system: guinea pigs administered aerosolized LPS; assay: Aerosolized LPS exposure in guinea pigs, bronchoalveolar lavage (BAL) 24 h after LPS; assay type: in vivo; settings: guinea pig
Method: The potential therapeutic effect of 2,3-alkylcarbonyloxybenzoic acids is exemplified by data generated in the study of 2,3-diacetoxybenzoic acid in guinea pigs. 2,3-diacetoxybenzoic acid was administered via intra-peritoneal injection to guinea pigs administered aerosolized LPS. Each animal was treated with 150 mg/kg of 2,3-diacetoxybenzoic acid or vehicle 1 hour prior to and 4 hours following LPS administration. Twenty four hours following administration of LPS, bronchoalveolar lavage (BAL) was performed. Intra-peritoneal administration of 2,3-diacetoxybenzoic acid appeared to have no effect on LPS-induced neutrophil recruitment into the lung. However, 2,3-diacetoxybenzoic acid treatment did produce a statistically significant reduction in albumin leakage (44%), a component of LPS-induced edema formation indicating a decrease in lung vascular permeability.

[2] = system: rat model of cecal ligation and perforation (CLP)-induced sepsis; assay: Awake rat model of cecal ligation and perforation (CLP)-induced sepsis, acute lung injury; assay type: in vivo
Text: An awake rat model of cecal ligation and perforation (CLP)-induced sepsis was employed to examine the therapeutic effect of 2,3-diacetoxybenzoic acid in sepsis induced acute lung injury. Oxidative stress resulting in increased lung permeability is characteristic of the onset and progression of acute lung injury in this model. […] 2,3-Diacetoxybenzoic acid treated animals appeared to have improvement in sepsis-associated symptoms such as lethargy, diarrhea, anorexia, and abdomenal distention.

[3] = 150 mg/kg i.p. 1 h prior to and 4 h post LPS, BAL 24 h after LPS, mean ± SEM, n = 5
[4] = 2.5 mg/kg/h continuous infusion
[5] = 2.5 mg/kg/h continuous infusion from 1 h to 24 h after induction of sepsis, 24 hours, mean ± SEM

## CC(=O)Oc1cccc(C(=O)O)c1OC(C)=O [DABA, 2,3-diacetoxybenzoic acid]
[1]; 150 mg/kg i.p. 1 h prior to and 4 h following LPS
  effect on LPS-induced neutrophil recruitment into the lung: no effect
[1]; 150 mg/kg i.p. 1 h prior to and 4 h following LPS, versus vehicle, statistically significant
  reduction in albumin leakage: 44%
[1]; [3]
  Albumin (BAL fluid): 605 ± 78 μg/mL BALF
  Neutrophil (BAL fluid): 80 ± 11 ×10^6/mL BALF
  Total Cell (BAL fluid): 112 ± 14 ×10^6/mL BALF
[2]; [4]
  body temperature: normalized
  cardiac output: normalized
  respiratory rate: normalized
  sepsis-associated symptoms such as lethargy, diarrhea, anorexia, and abdomenal distention: improvement
[2]; 2.5 mg/kg/h continuous infusion from 1 h to 24 h after induction of sepsis
  lung microvascular permeability increases: reduced
[2]; 2.5 mg/kg/h continuous infusion from 1 h to 24 h after induction of sepsis, 1 hour, mean ± SEM
  Systemic WBC, 1 hour: 6.7 ± 1.1 ×10^9/liter
[2]; [5]
  BAL WBC, 24 hours: 0.04 ± 0.02 ×10^9/liter
  BAL protein, 24 hours: 1.45 ± 1.73 mg/dL
  Systemic WBC, 24 hours: 3.6 ± 1.4 ×10^9/liter

— patent US20040019022A1, “Use of 2,3 alkylcarbonyloxybenzoic acids, derivatives and analogues therefrom in the treatment of tissue and cellular dysfunction, damage and injury in mammals” (priority 2002, published 2004)
